According to ChEMBL document CHEMBL1139632, “Design and synthesis of new 2-substituted-5-(2-benzylthiophenyl)-1,3,4-oxadiazoles as benzodiazepine receptor agonists” (Bioorg Med Chem Lett, 2005):

Tests used:
Mus musculus [1] = species: Mus musculus; assay: Lethal dose of in mice; type: functional
Mus musculus [2] = assay: Ability of the compound to protect mice against maximal electric shock (MES) induced convulsion in the presence of 10 mg/kg flumazenil; Range 54.9-102.9; type: functional
Mus musculus [3] = assay: Ability of the compound to protect mice against pentylenetetrazole induced convulsion in the presence of 10 mg/kg flumazenil; Ranges 60.1-135.9; type: functional
[4] = Lethal dose in mice; type: toxicity; conditions: mouse, in vivo

Compound	LD50 (Mus musculus [1]) [mg/kg]	ED50 (Mus musculus [2]) [mg/kg]	ED50 (Mus musculus [3]) [mg/kg]	LD50 [4] [mg/kg]
CCSc1nnc(-c2ccccc2SCc2ccccc2)o1	> 300	> 100	> 100	–
Nc1nnc(-c2ccccc2SCc2ccc(F)cc2)o1	> 300	> 100	29.1	–
Sc1nnc(-c2ccccc2SCc2ccccc2)o1	> 300	> 100	> 100	–
CN1C(=O)CN=C(c2ccccc2)c2cc(Cl)ccc21 [DIAZEPAM]	–	1.8	1.4	–
Nc1nnc(-c2ccccc2SCc2ccc(Cl)cc2)o1	> 300	> 100	> 100	–
Nc1nnc(-c2ccccc2SCc2ccccc2)o1	–	43.3	89.2	> 300
c1ccc(CSc2nnc(-c3ccccc3SCc3ccccc3)o2)cc1	> 300	> 100	> 100	–
CSc1nnc(-c2ccccc2SCc2ccccc2)o1	> 300	> 100	93.2	–
